Assay results taken from US20170080049A1, “MEDICINE AGAINST GROWTH FAILURE INDUCED BY ADMINISTRATION OF STEROID” (DAIICHI SANKYO COMPANY, LIMITED, priority 2014, published 2017).

Experiments:
Assay type in all cases: in vivo
[1] = tested on: dexamethasone-induced growth failure, male Crlj:WI (Wistar) rat; conditions: dexamethasone 1 mg/mL pump alone or combined with CNP derivative (A) 20 mg/mL pump, continuous s.c. 28 days, mean ± SD, n=6
Protocol: Osmotic pumps (MINI-OSMOTIC PUMP Model 2004, available from DURECT CORPORATION, flow rate: 0.25 μL/hr, for 28 days) were charged with a 1 mg/mL solution of dexamethasone (dexamethasone injection “KS”, available from Kyoritsuseiyaku Corporation, Group 2 and Group 3) or saline in a control group (Group 1), and one osmotic pump was embedded in the hypoderm of the back of each 7-week-old male Crlj:WI (Wistar) rat. At the same time, one osmotic pump (the same as described above) charged with a 20 mg/mL solution of CNP derivative (A) in Group 3, or charged with Medium 1 (0.03 mol/L acetate buffer (pH 4.0)/1% benzyl alcohol/10% sucrose) in Group 1 and Group 2 was embedded in the hypoderm of the back simultaneously with the pump containing dexamethasone or saline. Then the animals were fed for 28 days, and the body weight, the body length (length from the top of the nose to the anus) and the tail length were measured on the final day, and after collecting the blood from the abdominal aorta under isoflurane anesthesia, the right femur and major organs (spleen, thymus, liver, heart and lung) were collected. Regarding the femur, the bone length and width were measured by using a caliper, and the organ weights were measured. Concentrations of cholesterol and IGF-1 in plasma prepared from the blood, were determined by using cholesterol E-Test Wako (available from Wako Pure Chemical Industries, Ltd.) and Quantikine® ELISA Mouse/Rat IGF-I Immunoassay (MG100, available from R&D Systems). [Result]

[2] = tested on: rat growth failure induced by dexamethasone; experiment: Follow-up administration test of CNP derivative (A) for rat growth failure induced by dexamethasone (Example 4); conditions: n=5
Protocol: Osmotic pumps (MINI-OSMOTIC PUMP Model 2004, available from DURECT CORPORATION, flow rate: 0.25 μL/hr, for 28 days) were charged with a 0.67 mg/mL solution of dexamethasone (dexamethasone injection “KS”, available from Kyoritsuseiyaku Corporation), and one osmotic pump was embedded in the hypoderm of the back of each 4-week-old male Crlj:WI (Wistar) rat (5 animals/group, Group 2 and Group 3), and the animals were fed for 14 days. […] During the feeding period, transitions of the body weight, the body length and the tail length were measured, and on the final day, blood was collected from the abdominal aorta and the animal was caused to die under isoflurane anesthesia, the right femur was extracted and its length was measured.

male Crl: CD (SD) rat = experiment: Preparation of dexamethasone-induced growth failure model rat (Example 1); conditions: continuous s.c. dexamethasone 0.5 or 1 mg/mL, 28 days
Protocol: Osmotic pumps (MINI-OSMOTIC PUMP Model 2004, available from DURECT CORPORATION, flow rate: 0.25 μL/hr, for 28 days) were charged with dexamethasone (dexamethasone injection “KS”, available from Kyoritsuseiyaku Corporation) having a concentration of 0.5 mg/mL (Group 2) or 1 mg/mL (Group 3), and one osmotic pump was embedded in the hypoderm of the back of each 7-week-old male Crl: CD (SD) rat (5 animals/group, a total of 10 animals). Additionally, in a control group (Group 1, 5 animals), one osmotic pump (the same as above) charged with saline was embedded in the hypoderm of the back of each animal. Then the animals were fed for 28 days, and their bodyweight was measured twice or three times a week. On the final day, after blood collection under isoflurane anesthesia followed by immediate euthanasia, the right femur was extracted, and the length was measured. Plasma was separated from the collected blood, and cholesterol concentration was determined by using cholesterol E-Test Wako (available from Wako Pure Chemical Industries, Ltd.), and the plasma corticosterone concentration was determined by using a Corticosterone, ELISA Kit, AssayMax (96 well) (EC3001-1, available from ASSAYPRO LLC.).

[3] = tested on: steroid-induced growth failure, male Crlj:WI (Wistar) rat; experiment: Simultaneous combined administration test of various steroids and CNP derivative (A) in rats (Example 5)
Protocol: 0.3 mg/mL solution of dexamethasone (dexamethasone injection “KS”, available from Kyoritsuseiyaku Corporation diluted with saline), prednisolone succinate suspended in 0.1% polysorbate-containing brine (available from Wako Pure Chemical Industries, Ltd., concentration of 5 mg/mL as prednisolone), or betamethasone dipropionate suspended in 0.1% polysorbate-containing brine (available from Wako Pure Chemical Industries, Ltd., concentration of 0.3 mg/mL as betamethasone) was administered to the hypoderm of the back of a 4-week-old male Crlj:WI (Wistar) rat (ten animals for each set of substances) in a volume of 1 mL/kg once a day for 28 days. No substance was administered to the control group (5 animals, Group 1). At the same time, for five of ten animals in each set (Group 2, Group 4, Group 6) a medium (0.03 mol/L acetate buffer (pH 4.0)/1% benzyl alcohol/10% sucrose) and for the remaining five animals (Group 3, Group 5, Group 7) the medium and a 1 mg/mL solution of CNP derivative (A) were administered in combination in the hypoderm of the back in a volume of 1 mL/kg once a day for 28 days. After measuring the body weight, the body length and the tail length under isoflurane anesthesia on the day after the final day of administration, blood was collected from the abdominal aorta and the animal was caused to die, the right femur was extracted and the femur length was measured.

[4] = dexamethasone 0.67 mg/mL pump alone or with CNP derivative (A) 15 mg/mL pump for 28 days from Day 14
[5] = dexamethasone 0.67 mg/mL pump, 4-week-old male Wistar rat, baseline before CNP derivative (A)
[6] = dexamethasone 0.3 mg/mL, 1 mL/kg s.c. once a day 28 days, + medium or + CNP derivative (A) 1 mg/kg, n=5

Question: For C[C@@H]1C[C@H]2[C@@H]3CCC4=CC(=O)C=C[C@]4(C)[C@@]3(F)[C@@H](O)C[C@]2(C)[C@@]1(O)C(=O)CO [Dexamethasone, dexamethasone], which “Body length at final day” value ([1]; 7-week-old male Wistar rat) is on record?
Answer: The value was 219 ± 5 mm.

Question: And the “Tail length at final day” value ([1]; 7-week-old male Wistar rat)?
Answer: The value was 195 ± 6 mm.

Question: What about the “Right femur Length” value ([1]; male Wistar rat) of the same compound?
Answer: The value was 35.6 ± 0.6 mm.

Question: What about the “Right femur Wide (epiphyseal region, maximum width)” value ([1]; male Wistar rat) of the same compound?
Answer: Its value is 7.7 ± 0.4 ^NS mm.

Question: And the “Body weight at dissection (Day 28 of CNP derivative (A) administration)” value ([2]; dexamethasone 0.67 mg/mL pump 28 days alone or with CNP derivative (A) 15 mg/mL pump for 28 days from Day 14, male Wistar rat)?
Answer: Its value is 308 ± 20 g.

Question: And the “Body length at dissection (Day 28 of CNP derivative (A) administration)” value [2, 4]?
Answer: The value was 204 ± 3 mm.

Question: And the “Body length variation (Δ value) from starting of administration of CNP derivative (A)” value [2, 4]?
Answer: Its value is “(30 ± 1) mm”.

Question: And the “Body weight variation (Δ value) from starting of administration of CNP derivative (A)” value [2, 4]?
Answer: The value was “(129 ± 9) g”.

Question: And the “Right femur length only at dissection” value [2, 4]?
Answer: Its value is 32.9 ± 0.7 mm.

Question: What about the “Tail length at dissection (Day 28 of CNP derivative (A) administration)” value [2, 4] of the same compound?
Answer: Its value is 202 ± 8 mm.

Question: What about the “Tail length variation (Δ value) from starting of administration of CNP derivative (A)” value [2, 4] of the same compound?
Answer: The value was “(25 ± 7) mm”.

Question: What about the “Body weight, Day 14 of dexamethasone administration (prior to administration of CNP derivative (A))” value ([2]; dexamethasone 0.67 mg/mL pump, 4-week-old male Wistar rat, baseline before CNP derivative (A), mean ± SD) of the same compound?
Answer: Its value is 179 ± 12 g.

Question: What about the “Body length, Day 14 of dexamethasone administration (prior to administration of CNP derivative (A))” value [2, 5] of the same compound?
Answer: Its value is 174 ± 4 mm.

Question: And the “Tail length, Day 14 of dexamethasone administration (prior to administration of CNP derivative (A))” value [2, 5]?
Answer: Its value is 177 ± 7 mm.

Question: And the “body weight (in words)” value (male Crl: CD (SD) rat; SD rat (FIG. 1))?
Answer: The value was “decreased dose-dependently”.

Question: And the “femur length (in words)” value (male Crl: CD (SD) rat; SD rat (FIG. 2))?
Answer: The value was “shortened dose-dependently”.

Question: And the “Body length at dissection” value [3, 6]?
Answer: Its value is 177 ± 4 mm.

Question: What about the “Body length, variation from preadministration value (Δ value)” value [3, 6] of the same compound?
Answer: The value was “(27 ± 5) mm”.

Question: And the “Body weight, variation from preadministration value (Δ value)” value [3, 6]?
Answer: Its value is “(69 ± 5) g”.

Question: And the “Right femur length at dissection” value [3, 6]?
Answer: Its value is 28.3 ± 0.4 mm.

Question: What about the “Tail length at dissection” value [3, 6] of the same compound?
Answer: Its value is 174 ± 4 mm.

Question: What about the “Tail length, variation from preadministration value (Δ value)” value [3, 6] of the same compound?
Answer: The value was “(47 ± 7) mm”.

Question: What about the “Body weight at dissection” value ([3]; dexamethasone 0.3 mg/mL, 1 mL/kg s.c. once a day 28 days, + medium or + CNP derivative (A) 1 mg/mL, 1 mL/kg s.c. once a day, 4-week-old male Wistar rat, mean ± SD, n=5) of the same compound?
Answer: Its value is 176 ± 5 g.

Question: What about the “growth failure in rats by repeated administration of the steroid for 28 days (in words)” value ([3]; rat, in vivo, sc) of the same compound?
Answer: The value was “induce growth failure”.
